Where “and” joins values, the source holds several entries; their conditions need not be identical. Equal entries are not always repeated.
Legend:
Type in all cases: in vivo
[1] = test system: Viola tricolor (wild pansy); experiment: Greenhouse postemergence herbicidal effect on VIOTR; details: for Herbicidal Effects (% visual injury) VIOTR Obs: Ethephon 0 g/ha
From the text: (§1) Seeds of the desired test plant species were planted in a 90:10% v/v (volume/volume) mixture of PRO-MIX® BX (Premier Tech Horticulture, Quakertown, Pa., USA) and PROFILE® GREENS GRADE™ (Profile Products LLC, Buffalo Grove, Ill., USA) planting mixture, which typically has a pH of 5.2 to 6.2 and an organic matter content of at least 50 percent, in plastic pots with a surface area of 103.2 square centimeters (cm^2). In some aspects, to help ensure good germination and healthy plants, a fungicide treatment and/or other chemical or physical treatment was applied. The plants were grown for 7-36 days (d) in a greenhouse with an approximate 14-hour (h) photoperiod which was maintained at about 23° C. during the day and 22° C. during the night. Nutrients and water were added on a regular basis and supplemental lighting was provided with overhead metal halide 1000-Watt lamps as necessary. The plants were employed for testing when they reached the second or third true leaf stage.
(§2) Emulsifiable concentrates of each of each pyridine carboxylate herbicide (Compound A or Compound B) were prepared at 100 grams acid equivalent per liter (g ae/L). The emulsifiable concentrates also included a safener, cloquintocet-mexyl, at 120 grams active ingredient per liter (g ai/L). An aliquot of each emulsifiable concentrate was placed in a 25 mL glass vial and diluted with an aqueous mixture of 1.25% (v/v) ACTIROB® B esterified rapeseed oil (Bayer Crop Science, Research Triangle Park, N.C., USA) or MSO® Concentrate with LECI-TECH® methylated soybean oil (Loveland Products, Loveland, Colo., USA) to obtain concentrated stock solutions at the highest application rate for each herbicide, based upon a 12 milliliter (mL) application volume at a rate of 187 liters per hectare (L/ha). The concentrated stock solutions were further diluted with an aqueous mixture of 1.25% v/v ACTIROB® B or MSO® Concentrate with LECI-TECH® to obtain stock solutions at reduced application rates for each herbicide. Spray solutions of the herbicide combinations (Compound A or Compound B plus the PGR) were prepared by adding weighed amounts or aliquots of the PGR to the stock solutions of Compound A or Compound B to form 12-mL spray solutions in two-way combinations.
(§3) The spray solutions were applied to the plant material with an overhead Mandel track sprayer equipped with 8002E nozzles calibrated to deliver 187 L/ha over an application area of 0.503 square meters (m^2) at a spray height of 18 inches (43 centimeters (cm)) above the average plant canopy. Control plants were sprayed in the same manner with the solvent blank. All pyridine carboxylate herbicide (component a) application rates are given as “g ae/ha” and all PGR (component b) application rates are given as “g ai/ha.”
(§4) The treated plants and control plants were placed in a greenhouse as described above and watered by sub-irrigation to prevent wash-off of the test compounds. After 20-22 d, the condition of the test plants as compared with that of the control plants was determined visually and scored on a scale of 0 to 100 percent where 0 corresponds to no injury and 100 corresponds to complete kill.

[2] = test system: Abutilon theophrasti (velvetleaf); experiment: Greenhouse postemergence herbicidal effect on ABUTH; details: for Herbicidal Effects (% visual injury) ABUTH Obs: Ethephon 0 g/ha
From the text: as §1, §2, §3, §4

[3] = test system: Amaranthus retroflexus (pigweed); experiment: Greenhouse postemergence herbicidal effect on AMARE; details: for Herbicidal Effects (% visual injury) AMARE Obs: Ethephon 0 g/ha
From the text: as §1, §2, §3, §4

[4] = test system: Helianthus annuus (common sunflower); experiment: Greenhouse postemergence herbicidal effect on HELAN; details: for Herbicidal Effects (% visual injury) HELAN Obs: Ethephon 0 g/ha
From the text: as §1, §2, §3, §4

Kochia scoparia (kochia) = experiment: Greenhouse postemergence herbicidal effect on KCHSC; details: for Herbicidal Effects (% visual injury) KCHSC Obs: Ethephon 0 g/ha
From the text: as §1, §2, §3, §4

[5] = test system: Stellaria media (chickweed); experiment: Greenhouse postemergence herbicidal effect on STEME; details: for Herbicidal Effects (% visual injury) STEME Obs: Ethephon 0 g/ha
From the text: as §1, §2, §3, §4

[6] = test system: Chenopodium album L. (common lambsquarters); experiment: Greenhouse postemergence herbicidal effect on CHEAL; details: Ethephon 0 g/ha
From the text: as §1, §2, §3, §4

[7] = test system: Matricaria inodora (scentless chamomile); experiment: Greenhouse postemergence herbicidal effect on MATIN
From the text: as §1
(§5) Emulsifiable concentrates of each of each pyridine carboxylate herbicide (Compound A or Compound B) were prepared at 100 grams acid equivalent per liter (g ae/L). The emulsifiable concentrates also included a safener, cloquintocet-mexyl, at 120 grams active ingredient per liter (g ai/L). […]
as §4

[8] = test system: Anthemis arvensis (corn chamomile); experiment: Greenhouse postemergence herbicidal effect on ANTAR
From the text: as §1, §5, §4

[9] = test system: Matricaria discoidea (pineapple weed); experiment: Greenhouse postemergence herbicidal effect on MATMT
From the text: as §1, §5, §4

[10] = test system: Papaver rhoeas (common poppy); experiment: Greenhouse postemergence herbicidal effect on PAPRH
From the text: as §1, §5, §4

[11] = test system: Veronica hederifolia (ivy-leaved speedwell); experiment: Greenhouse postemergence herbicidal effect on VERHE
From the text: as §1, §5, §4

[12] = test system: Sinapis arvensis (wild mustard); experiment: Greenhouse postemergence herbicidal effect on SINAR
From the text: as §1, §5, §4

[13] = test system: Brassica napus (winter rape); experiment: Greenhouse postemergence herbicidal effect on BRSNW
From the text: as §1, §5, §4

[14] = test system: Cyperus esculentus (yellow nutsedge); experiment: Greenhouse postemergence herbicidal effect on CYPES; details: Ethephon 0 g/ha
From the text: as §1, §5
(§6) The treated plants and control plants were placed in a greenhouse as described above and watered by sub-irrigation to prevent wash-off of the test compounds. After 20-22 d, the condition of the test plants as compared with that of the control plants was determined visually and scored on a scale of 0 to 100 percent where 0 corresponds to no injury and 100 corresponds to complete kill. […]

[15] = test system: Echinochloa crus-galli (barnyard grass); experiment: Greenhouse postemergence herbicidal effect on ECHCG; details: Ethephon 0 g/ha
From the text: as §1, §5, §6

[16] = test system: Rumex obtusifolia (broadleaf dock); experiment: Greenhouse postemergence herbicidal effect on RUMOB; details: Ethephon 0 g/ha
From the text: as §1, §5, §6

N#CCOC(=O)c1nc(-c2ccc3cc[nH]c3c2F)c(F)c(N)c1Cl [Compound A, cyanomethyl 4-amino-3-chloro-5-fluoro-6-(7-fluoro-1H-indol-6-yl)pyridine-2-carboxylate]
Herbicidal Effects (% visual injury) VIOTR Obs ([1]; Compound A 7.5 g/ha): 13% | Herbicidal Effects (% visual injury) VIOTR Obs ([1]; Compound A 10 g/ha): 20% | % visual injury Obs ([1]; herbicide 15 g ae/ha alone): 15% | Herbicidal Effects (% visual injury) ABUTH Obs ([2]; Compound A 7.5 g/ha): 73% | Herbicidal Effects (% visual injury) ABUTH Obs ([2]; Compound A 10 g/ha): 85% | % visual injury Obs ([2]; herbicide 7.5 g ae/ha alone): 40% and 68% | % visual injury Obs ([2]; herbicide 10 g ae/ha alone): 48% and 80% | Herbicidal Effects (% visual injury) AMARE Obs ([3]; Compound A 7.5 g/ha): 99% | Herbicidal Effects (% visual injury) AMARE Obs ([3]; Compound A 10 g/ha): 100% | % visual injury Obs ([3]; herbicide 7.5 g ae/ha alone): 80% and 88% | % visual injury Obs ([3]; herbicide 10 g ae/ha alone): 85% and 88% | Herbicidal Effects (% visual injury) HELAN Obs ([4]; Compound A 7.5 g/ha): 100% | Herbicidal Effects (% visual injury) HELAN Obs ([4]; Compound A 10 g/ha): 93% | % visual injury Obs ([4]; herbicide 7.5 g ae/ha alone): 83% and 90% | % visual injury Obs ([4]; herbicide 10 g ae/ha alone): 88% and 89% | Herbicidal Effects (% visual injury) KCHSC Obs (Kochia scoparia (kochia); Compound A 7.5 g/ha): 70% | Herbicidal Effects (% visual injury) KCHSC Obs (Kochia scoparia (kochia); Compound A 10 g/ha): 65% | % visual injury Obs (Kochia scoparia (kochia); herbicide 7.5 g ae/ha alone): 63% and 75% | % visual injury Obs (Kochia scoparia (kochia); herbicide 10 g ae/ha alone): 65% and 73% | % visual injury Obs (Kochia scoparia (kochia); herbicide 15 g ae/ha alone): 63% | Herbicidal Effects (% visual injury) STEME Obs ([5]; Compound A 7.5 g/ha): 100% | Herbicidal Effects (% visual injury) STEME Obs ([5]; Compound A 10 g/ha): 100% | % visual injury Obs ([5]; herbicide 7.5 g ae/ha alone): 89% and 85% | % visual injury Obs ([5]; herbicide 10 g ae/ha alone): 90% and 88% | % visual injury Obs ([5]; herbicide 15 g ae/ha alone): 89% | Herbicidal Effects (% visual injury) CHEAL Obs ([6]; Compound A 7.5 g/ha): 100% | Herbicidal Effects (% visual injury) CHEAL Obs ([6]; Compound A 10 g/ha): 100% | % visual injury Obs ([7]; herbicide 7.5 g ae/ha alone): 55% | % visual injury Obs ([7]; herbicide 10 g ae/ha alone): 60% | % visual injury Obs ([7]; herbicide 15 g ae/ha alone): 83% | % visual injury Obs ([8]; herbicide 7.5 g ae/ha alone): 68% | % visual injury Obs ([8]; herbicide 10 g ae/ha alone): 70% | % visual injury Obs ([8]; herbicide 15 g ae/ha alone): 88% | % visual injury Obs ([9]; herbicide 7.5 g ae/ha alone): 20% | % visual injury Obs ([9]; herbicide 10 g ae/ha alone): 20% | % visual injury Obs ([9]; herbicide 15 g ae/ha alone): 63% | % visual injury Obs ([10]; herbicide 7.5 g ae/ha alone): 100% | % visual injury Obs ([10]; herbicide 10 g ae/ha alone): 99% | % visual injury Obs ([10]; herbicide 15 g ae/ha alone): 100% | % visual injury Obs ([11]; herbicide 7.5 g ae/ha alone): 68% | % visual injury Obs ([11]; herbicide 10 g ae/ha alone): 73% | % visual injury Obs ([11]; herbicide 15 g ae/ha alone): 75% | % visual injury Obs ([12]; herbicide 7.5 g ae/ha alone): 88% | % visual injury Obs ([12]; herbicide 10 g ae/ha alone): 91% | % visual injury Obs ([12]; herbicide 15 g ae/ha alone): 91% | % visual injury Obs ([13]; herbicide 7.5 g ae/ha alone): 60% | % visual injury Obs ([13]; herbicide 10 g ae/ha alone): 65% | % visual injury Obs ([13]; herbicide 15 g ae/ha alone): 73% | Herbicidal Effects (% visual injury) CYPES Obs ([14]; Compound A 7.5 g/ha): 58% | Herbicidal Effects (% visual injury) CYPES Obs ([14]; Compound A 10 g/ha): 38% | Herbicidal Effects (% visual injury) ECHCG Obs ([15]; Compound A 7.5 g/ha): 90% | Herbicidal Effects (% visual injury) ECHCG Obs ([15]; Compound A 10 g/ha): 94% | Herbicidal Effects (% visual injury) RUMOB Obs ([16]; Compound A 7.5 g/ha): 8% | Herbicidal Effects (% visual injury) RUMOB Obs ([16]; Compound A 10 g/ha): 18%
